Reference: patent publication US8802929B2, “MIR164 gene that controls plant root system development and fertility and use thereof” (Huazhong Agricultural University, priority 2009, dated 2014)

Key:
[1] = tested on: transgenic plants overexpressing miR164; assay: Restoration of fertility of transgenic plants overexpressing miR164 by external application of hormones; assay type: in vivo, rice; conditions: two T0 transgenic plants; four phytohormones (IAA, NAA, KT, 6-BA) applied continually from tillering stage to grain filling stage; FIG. 7
From the text: Two T0 transgenic plants overexpressing miR164 were continually subjected to external application of four phytohormones, indoleacetic acid (IAA), naphthaleneacetic acid (NAA), kinetin (KT), and 6-benzylaminopurine (6-BA) from tillering stage to grain filling stage, and compared with the transgenic plants overexpressing miR164 grown normally. […] That the fertility of transgenic rice plants overexpressing miR164 could be restored by external application of hormones can be taken advantage of to conveniently use a transgenic rice plant to breed a sterile line (without application of hormones) or a maintainer line (by external application of hormones to allow the sterile line to produce seeds and to be reproduced; however the next generation is still sterile without externally applied hormones), thereby achieving “the double usage of a single line” for the breeding of hybrid rice.

miR164 = assay: Expression level of mature miR164 after phytohormone treatment, Northern blotting; assay type: in vivo, rice variety Minghui 63 (Oryza sativa L. ssp. Indica); conditions: hormone sprayed onto rice plants at 4-leaf stage; for change in expression of miR164 after phytohormone treatment: leaves, Northern blotting, FIG. 3
Procedure: The indica rice variety “Minghui 63” was used for expression profile analysis. Phytohormone treatment was carried out by evenly spraying the hormones onto the surfaces of the rice plants at the 4-leaf stage obtained from seeds which had been induced to germinate and cultivated under normal growth conditions for 18-20 days. The plants treated with kinetin and gibberellin were sampled before treatment as well as 1 min, 5 min, 10 min, 20 min, 30 min, 1 h, and 3 h after treatment. The plants treated with naphthaleneacetic acid were sampled before treatment as well as 30 min, 3 h, 9 h and 24 h after treatment. The plants treated with brassinolide were sampled before treatment as well as 15 min, 30 min, 1 h, 3 h, 6 h, 9 h and 21 h after treatment. Light treatment of etiolated shoots was performed by subjecting seeds to induction of germination and continuous cultivation in dark for 14 days followed by transferring the etiolated shoots to normal lighting conditions. Samples were taken before light treatment as well as 3 h, 6 h and 9 h after light treatment. Total RNA was extracted from leaves using Trizol reagent (Invitrogen Corp.), and then transferred to membrane as described by Xie et al. (Xie K, Wu C, and Xiong L. Genomic organization, differential expression, and interaction of SQUAMOSA promoter-binding-like transcription factors and microRNA156 in rice. Plant Physiol, 2006, 142: 280-293). Northern hybridization was performed using miR164 as the probe. […] The expression level of miR164 increased 24 hours after naphthaleneacetic acid (NAA) treatment.

rice root system = assay: Root system phenotype of transgenic plants overexpressing miR164 on 1/2 MS medium; assay type: in vivo; conditions: overexpression under ubiquitin promoter; 10 days on 1/2 MS basal media; FIG. 5
Procedure: In this example, transgenic plants overexpressing miR164 (FIG. 4) and wild-type plants were grown in ½ MS medium and observed for their phenotypes. The procedure was carried out as follows, Rice seeds from transgenic lines overexpressing miR164 were husked and disinfected (75% alcohol treatment for 3 minutes followed by 0.15% HgCl2 treatment for 30 minutes, and rinsed with sterile water for several times), and then allowed to germinate on the ½ MS basal media containing 50 mg/L hygromycin. One day later, the rice seeds from wild-type control lines were placed on the ½ MS basal media without hygromycin and allowed to germinate. Two to three days later, well germinated and consistently grown seeds were transferred to ½ MS basal media and cultivated in an illumination incubator (which simulated natural growth condition of 14-hour light and 10-hour darkness) for 10 days for phenotype observation. More than 30 plants were selected for each of the transgenic and wild-type plant lines, and each experiment was run in triplicate.

rice pollens = assay: Fertility phenotype of transgenic plants overexpressing miR164 (iodine staining of pollens); assay type: in vivo; conditions: overexpression under ubiquitin promoter; FIG. 6
From the text: This abnormality made the glumes unable to open such that the filaments, although elongated, could not extend out of the glumes (FIG. 6B). […] Moreover, the ovaries of most of the transgenic plants overexpressing miR164 stopped growing or even died (FIG. 6C to 6E). The development of anthers in the transgenic plants overexpressing miR164 was abnormal. […] The pollens of the transgenic plants overexpressing miR164 were not in the normal globular shape, but were shrunken (FIG. 6F to 6K). […] The sterility of the transgenic plants overexpressing miR164 could be utilized to conveniently breed a rice sterile line for hybrid rice breeding.

| Molecule | seed production of transgenic plants overexpressing miR164 after external application of hormones [1] | change in expression of miR164 after phytohormone treatment (miR164) | further results |
| --- | --- | --- | --- |
| c1ccc(CNc2ncnc3nc[nH]c23)cc1 [6-benzylaminopurine, 6-Benzylaminopurine] | produce seeds normally |  |  |
| gibberellin |  | increased | time of peak miR164 expression after treatment (miR164; then dropping to the level before treatment): 10 min |
| O=C(O)Cc1c[nH]c2ccccc12 [indoleacetic acid, Indole-3-acetic acid] | produce seeds normally |  |  |
| c1coc(CNc2ncnc3[nH]cnc23)c1 [Kinetin] | produce seeds normally | decreased gradually |  |
| CC(C)[C@H](C)[C@@H](O)[C@H](O)[C@@H](C)[C@H]1CC[C@H]2[C@@H]3COC(=O)[C@H]4C[C@H](O)[C@H](O)C[C@]4(C)[C@H]3CC[C@]12C [brassinolide] |  | no obvious change |  |
| miR164: mature microRNA (SEQ ID NO: 2) from the rice miR164 gene (SEQ ID NO: 1), overexpressed in rice under a ubiquitin promoter (UGGAGAAGCAGGGCACGUGCA; listed as Oryza sativa) |  |  | root system of transgenic plants versus wild-type plants (rice root system): obviously larger root systems; pollen fertility of transgenic plants (iodine staining) (rice pollens): completely sterile |
